Test: Measurement of log P values by HPLC on reversed phase columns (EEC directive 79/831 Annex V.A8; methods [a] pH 2.3, [b] pH 2.7, [c] pH 7.8)
Assay type: physicochemical
Protocol: Measurement of log P-values:
Measurement of log P values was performed according EEC directive 79/831 Annex V.A8 by HPLC (High Performance Liquid Chromatography) on reversed phase columns with the following methods:
^[a] Measurement was done at pH 2.3 with 0.1% phosphoric acid and acetonitrile as eluent with a linear gradient from 10% acetonitrile to 95% acetonitrile.
^[b] measurement of LC-MS was done at pH 2.7 with 0.1% formic acid in water and with acetonitrile (contains 0.1% formic acid) as eluent with a linear gradient from 10% acetonitrile to 95% acetonitrile.
^[c] Measurement with LC-MS was done at pH 7.8 with 0.001 molar ammonium hydrogen carbonate solution in water as eluent with a linear gradient from 10% acetonitrile to 95% acetonitrile.
Calibration was done with not branched alkan2-ones (with 3 to 16 carbon atoms) with known log P-values (measurement of log P values using retention times with linear interpolation between successive alkanones).. lambda-maX-values were determined using UV-spectra from 200 nm to 400 nm and the peak values of the chromatographic signals.

[1] = method [b]: LC-MS at pH 2.7, 0.1% formic acid in water / acetonitrile
[2] = method [c]: LC-MS at pH 7.8, 0.001 molar ammonium hydrogen carbonate in water / acetonitrile
[3] = method [b]: LC-MS, pH 2.7, 0.1% formic acid in water / acetonitrile
[4] = method [c]: LC-MS, pH 7.8, 0.001 molar ammonium hydrogen carbonate / acetonitrile
[5] = method [a]: HPLC, pH 2.3, 0.1% phosphoric acid / acetonitrile

Row | SMILES | log P [1] | log P [2] | logP [3] | also measured
1 | CCOC(c1ccc(Cl)cc1Cl)C(C)NC(=O)c1ccccc1Cl (centres unmarked) [Compound 201] | 4.35^[b] | 4.39^[c]; |  | 
2 | COC(c1ccc(Cl)cc1)C(C)(C)NC(=O)c1sccc1I (centres unmarked) [Compound 87] |  |  | 4.77^[b] | logP [4]: 4.47^[c];
3 | COC(CNC(=O)c1cccnc1Cl)c1ccc(Cl)cc1Cl (centres unmarked) [Compound 102] |  |  | 2.75^[b] | 
4 | CCOC(c1ccc(Cl)cc1Cl)C(C)NC(=O)c1c(C(F)F)nn(C)c1F (centres unmarked) [Compound 47] |  |  | 4.20^[b] | 
5 | COC(CN(C(=O)c1cccnc1C(F)(F)F)C1CC1)c1ccc(Cl)cc1Cl (centres unmarked) [Compound 166] | 4.16^[b] |  |  | 
6 | C#CCOC(c1ccc(Cl)c(Cl)c1)C(C)(C)NC(=O)c1sccc1C (centres unmarked) [compound 3] |  |  |  | logP [5]: 4.58^[a]
7 | COC(c1ccc(Cl)cc1Cl)C(C)(C)NC(=O)c1c(F)cccc1F (centres unmarked) [Compound 77] |  |  | 4.29^[b] | logP [4]: 4.24^[c];
8 | COC(c1ccc(Cl)cc1)C(C)NC(=O)c1cccnc1Cl (centres unmarked) [Compound 135] | 2.65^[b] | 2.62^[c]; |  | 
9 | COC(c1ccccc1Cl)C(C)NC(=O)c1ccccc1[N+](=O)[O-] (centres unmarked) [Compound 138] | 2.82^[b] | 2.78^[c]; |  | 
10 | COC(c1ccc(Cl)cc1Cl)C1(NC(=O)c2cc(C)nn2C)CC1 (centres unmarked) [compound 125] | 3.05^[b] |  |  | 
11 | COC(c1ccc(F)cc1)C(C)NC(=O)c1ccccc1F (centres unmarked) [Compound 183] | 3.04^[b] | 3.02^[c]; |  | 
12 | CCOC(c1ccc(Cl)cc1Cl)C(C)NC(=O)c1ccccc1Br (centres unmarked) [Compound 200] | 4.43^[b] | 4.39^[c]; |  | 
13 | COC(c1ccc(Cl)cc1Cl)C(C)NC(=O)c1cn(C)nc1C(F)F (centres unmarked) [compound 17] |  |  | 3.25^[b] | 
14 | COC(c1ccc(Cl)cc1)C(C)NC(=O)c1c(F)cccc1F (centres unmarked) [Compound 132, N-[1-(4-chlorophenyl)-1-methoxypropan-2-yl]-2,6-difluorobenzamide] |  |  |  | chromatographic logP (method [b]: LC-MS at pH 2.7, 0.1% formic acid in water / acetonitrile, read-out: log P): 3.12
15 | COC(c1ccc(Cl)cc1Cl)C(C)NC(=O)c1c(C)c(C)nn1C(F)F (centres unmarked) [Compound 116] | 3.97^[b] | 3.84^[c]; |  | 
16 | COC(c1cc(Cl)cc(Cl)c1)C(C)NC(=O)c1cccnc1C(F)(F)F (centres unmarked) [Compound 96] |  |  | 3.52^[b] | 
17 | CCOC(c1ccc(Cl)cc1Cl)C(C)NC(=O)c1ccccc1C (centres unmarked) [Compound 198] | 4.35^[b] | 4.33^[c]; |  | 
18 | COC(CNC(=O)c1cccnc1C(F)(F)F)c1cc(Cl)cc(Cl)c1 (centres unmarked) [Compound 119] | 3.19^[b] |  |  | 
19 | COC(c1ccc(Cl)cc1)C(C)NC(=O)c1ccccc1F (centres unmarked) [Compound 133] | 3.40^[b] | 3.44^[c]; |  | 
20 | COC(c1ccccc1Cl)C(C)NC(=O)c1ccccc1F (centres unmarked) [Compound 147] | 3.44^[b] | 3.42^[c]; |  | 
21 | COC(c1ccc(Cl)cc1Cl)C(C)(C)NC(=O)c1ccccc1Cl (centres unmarked) [Compound 75] |  |  | 4.59^[b] | logP [4]: 4.54^[c];
22 | COC(CNC(=O)c1c(C(F)F)nn(C)c1Cl)c1cc(Cl)cc(Cl)c1 (centres unmarked) [Compound 40] |  |  | 3.55^[b] | 
23 | COC(c1cc(Cl)cc(Cl)c1)C(C)NC(=O)c1c(C(F)F)nn(C)c1Cl (centres unmarked) [Compound 42] |  |  | 3.92^[b] | 

Row | SMILES | log P [1] | log P [2] | logP [3] | also measured
24 | COC(c1ccc(Cl)cc1)C(C)(C)NC(=O)c1c(F)cccc1F (centres unmarked) [Compound 82] |  |  | 3.78^[b] | logP [4]: 3.79^[c];
25 | COC(CNC(=O)c1c(C(F)F)nn(C)c1Cl)c1ccc(Cl)cc1Cl (centres unmarked) [Compound 44] |  |  | 3.48^[b] | 
26 | COC(c1ccc(Cl)cc1Cl)C1(NC(=O)c2ccccc2Br)CC1 (centres unmarked) [Compound 151] | 3.82^[b] | 3.76^[c]; |  | 
27 | CCC(NC(=O)c1c(C(F)F)nn(C)c1Cl)C(OC)c1ccc(Cl)cc1Cl (centres unmarked) [Compound 48] |  |  | 4.18^[b] | 
28 | COC(c1ccc(Cl)cc1)C(C)NC(=O)c1snc(Cl)c1Cl (centres unmarked) [Compound 61] |  |  | 4.34^[b] | 
29 | COC(c1ccccc1Cl)C(C)NC(=O)c1ccccc1C(F)(F)F (centres unmarked) [Compound 145] | 3.45^[b] | 3.41^[c]; |  | 
30 | COC(c1ccc(Cl)cc1Cl)C1(NC(=O)c2ccccc2C)CC1 (centres unmarked) [Compound 153] | 3.75^[b] | 3.72^[c]; |  | 
31 | CCC(NC(=O)c1c(C(F)F)nn(C)c1F)C(OC)c1ccc(Cl)cc1Cl (centres unmarked) [Compound 49] |  |  | 3.94^[b] | 
32 | CCOC(c1ccc(Cl)cc1Cl)C(C)NC(=O)c1c(F)cccc1F (centres unmarked) [Compound 196] | 4.14^[b] | 4.13^[c]; |  | 
33 | COC(c1ccc(Cl)cc1)C(C)NC(=O)c1ccsc1 (centres unmarked) [Compound 62] |  |  | 2.84^[b] | 
34 | COC(c1ccc(Cl)cc1Cl)C(C)N(C(=O)c1cccnc1C(F)F)C1CC1 (centres unmarked) [Compound 171] | 3.92^[b] |  |  | 
35 | COC(c1ccc(Cl)cc1Cl)C(C)NC(=O)c1c(F)c(C)nn1C(F)F (centres unmarked) [compound 114] |  |  | 4.57^[b] | 
36 | COC(c1ccc(F)cc1)C(C)NC(=O)c1ccccc1C(F)(F)F (centres unmarked) [Compound 190] |  | 3.16^[c] |  | 
37 | COC(c1ccc(F)cc1)C(C)NC(=O)c1ccccc1C (centres unmarked) [Compound 188] | 2.91^[b] | 2.86^[c]; |  | 
38 | CCC(NC(=O)c1cccnc1C(F)(F)F)C(OC)c1ccc(Cl)cc1Cl (centres unmarked) [Compound 91] |  |  | 3.70^[b] | 
39 | COC(c1ccc(Cl)cc1Cl)C(C)(C)NC(=O)c1occc1Br (centres unmarked) [Compound 80] |  |  | 4.59^[b] | logP [4]: 4.37^[c];
40 | COC(c1ccccc1Cl)C(C)NC(=O)c1ccccc1I (centres unmarked) [Compound 146] | 3.44^[b] | 3.40^[c]; |  | 
41 | CCn1nc(C)c(C)c1C(=O)NC(C)C(OC)c1ccccc1 (centres unmarked) [Compound 55] |  |  | 2.71^[b] | 
42 | COC(c1ccccc1Cl)C(C)NC(=O)c1sc(C)nc1C(F)(F)F (centres unmarked) [Compound 212] | 3.34^[b] | 3.31^[c]; |  | 
43 | CCOC(c1ccc(Cl)cc1Cl)C(C)NC(=O)c1sc(C)nc1C(F)(F)F (centres unmarked) [Compound 204] | 4.37^[b] | 4.42^[c]; |  | 
44 | COC(c1ccc(Cl)cc1Cl)C(C)NC(=O)c1c(C(F)F)nn(C)c1F (centres unmarked) [compound 14] |  |  | 3.65^[b] | 
45 | COC(c1ccc(Cl)cc1Cl)C(C)NC(=O)c1c(C)nn(C)c1F (centres unmarked) [compound 13] |  |  | 3.13^[b] | 
46 | COC(c1cc(Cl)cc(Cl)c1)C(C)NC(=O)c1cccnc1Cl (centres unmarked) [Compound 94] |  |  | 3.17^[b] | 

Row | SMILES | log P [1] | log P [2] | logP [3] | also measured
47 | COC(c1ccc(Cl)cc1Cl)C(C)N(C(=O)C1=C(C)OCCS1)C1CC1 (centres unmarked) [Compound 172] | 4.30^[b] |  |  | 
48 | COC(c1ccc(Cl)cc1Cl)C1(NC(=O)c2ccccc2Cl)CC1 (centres unmarked) [Compound 154] | 3.76^[b] | 3.71^[c]; |  | 
49 | COC(c1ccc(Cl)cc1Cl)C(C)N(C(=O)c1ncc(Cl)cc1C(F)(F)F)C1CC1 (centres unmarked) [Compound 159] | 5.39^[b] |  |  | 
50 | Cc1ccsc1C(=O)NCC(OCC(C)C)c1ccc(Cl)cc1 (centres unmarked) [compound 7] |  |  |  | logP [5]: 4.49^[a]
51 | CCOC(c1ccc(Cl)cc1Cl)C(C)NC(=O)c1cccnc1 (centres unmarked) [Compound 206] | 2.89^[b] | 3.03^[c]; |  | 
52 | COC(c1ccc(Cl)cc1Cl)C1(NC(=O)c2ccccc2I)CC1 (centres unmarked) [Compound 152] | 3.92^[b] | 3.88^[c]; |  | 
53 | COC(c1ccc(Cl)cc1)C(C)(C)NC(=O)c1cccnc1Cl (centres unmarked) [Compound 81] |  |  | 3.24^[b] | logP [4]: 3.23^[c];
54 | COC(c1ccc(Cl)cc1Cl)C1(NC(=O)c2ccnn2C(F)F)CC1 (centres unmarked) [compound 121] | 3.46^[b] |  |  | 
55 | COC(c1ccc(Cl)cc1Cl)C(C)N(C(=O)c1cccnc1Cl)C1CC1 (centres unmarked) [Compound 170] | 4.03^[b] |  |  | 
56 | COC(CN(C(=O)c1cccnc1Cl)C1CC1)c1ccc(Cl)cc1Cl (centres unmarked) [Compound 167] | 3.76^[b] |  |  | 
57 | COC(c1ccc(Cl)cc1Cl)C1(NC(=O)c2cccnc2C(F)F)CC1 (centres unmarked) [Compound 97] |  |  | 3.06^[b] | 
58 | CCOC(c1ccc(Cl)cc1Cl)C(C)NC(=O)c1ccccc1I (centres unmarked) [Compound 197] | 4.51^[b] | 4.56^[c]; |  | 
59 | COC(CNC(=O)c1c(C(F)F)nn(C)c1F)c1cc(Cl)cc(Cl)c1 (centres unmarked) [Compound 41] |  |  | 3.33^[b] | 
60 | COC(CNC(=O)c1c(C(F)F)nn(C)c1F)c1ccc(Cl)cc1Cl (centres unmarked) [Compound 45] |  |  | 3.25^[b] | 
61 | COC(c1ccc(Cl)cc1Cl)C(C)N(C(=O)c1cccnc1C(F)(F)F)C1CC1 (centres unmarked) [Compound 173] | 4.44^[b] |  |  | 
62 | COC(c1ccc(F)cc1)C(C)NC(=O)c1c(F)cccc1C(F)(F)F (centres unmarked) [Compound 189] | 3.24^[b] | 3.19^[c]; |  | 
63 | COC(c1ccc(F)cc1)C(C)NC(=O)c1ccccc1Br (centres unmarked) [Compound 186] | 2.99^[b] | 2.95^[c]; |  | 
64 | COC(CNC(=O)c1cccnc1Cl)c1cc(Cl)cc(Cl)c1 (centres unmarked) [Compound 118] | 2.82^[b] |  |  | 
65 | COC(c1ccc(F)cc1)C(C)NC(=O)c1cccnc1Cl (centres unmarked) [Compound 184] | 2.25^[b] | 2.23^[c]; |  | 
66 | CCOC(c1ccc(Cl)cc1Cl)C(C)NC(=O)c1c(F)cccc1C(F)(F)F (centres unmarked) [Compound 193] | 4.55^[b] | 4.53^[c]; |  | 
67 | COC(c1ccccc1Cl)C(C)NC(=O)c1ccccc1C (centres unmarked) [Compound 148] | 3.26^[b] | 3.23^[c]; |  | 
68 | CCOC(c1ccc(Cl)cc1Cl)C(C)NC(=O)c1ccccc1C(F)F (centres unmarked) [Compound 199] | 4.45^[b] | 4.40^[c]; |  | 

From patent US20160100579A1, “NEMATICIDAL N-(2-SUBSTITUTED 2-PHENYLETHYL)CARBOXAMIDES AND N-(2-SUBSTITUTED 2-PHENYLETHYL)-THIOCARBOXAMIDES” (priority 2013, published 2016)
